Here are results for four compounds from PMC3823026, “Protein–Protein Interaction Regulates the Direction of Catalysis and Electron Transfer in a Redox Enzyme Complex” (Journal of the American Chemical Society, 2013).

SMILES strings stand for the structures.

Assay type in all cases: biochemical
For one experiment, the target named is T1, Fcc3 (Shewanella oneidensis, UniProt P83223).
T1 construct: gene fccA; monomer in solution; with Membrane anchored tetraheme cytochrome c CymA
T1 sequence (P83223 26-596): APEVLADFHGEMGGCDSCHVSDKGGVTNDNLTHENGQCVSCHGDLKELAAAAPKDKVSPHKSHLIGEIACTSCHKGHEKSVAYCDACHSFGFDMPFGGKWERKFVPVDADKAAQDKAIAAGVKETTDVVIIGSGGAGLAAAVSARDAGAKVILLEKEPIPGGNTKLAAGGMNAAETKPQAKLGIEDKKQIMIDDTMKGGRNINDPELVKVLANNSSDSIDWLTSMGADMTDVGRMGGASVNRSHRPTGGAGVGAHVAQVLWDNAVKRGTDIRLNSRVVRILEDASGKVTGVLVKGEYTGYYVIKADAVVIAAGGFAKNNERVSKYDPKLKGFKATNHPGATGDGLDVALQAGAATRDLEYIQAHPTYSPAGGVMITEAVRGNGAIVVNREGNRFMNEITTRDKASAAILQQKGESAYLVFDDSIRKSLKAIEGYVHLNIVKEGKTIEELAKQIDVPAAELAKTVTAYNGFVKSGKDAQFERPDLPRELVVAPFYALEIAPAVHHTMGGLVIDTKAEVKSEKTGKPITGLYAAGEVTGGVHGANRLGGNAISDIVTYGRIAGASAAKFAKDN
T1 sequence (Q8E8S0 1-187 partner): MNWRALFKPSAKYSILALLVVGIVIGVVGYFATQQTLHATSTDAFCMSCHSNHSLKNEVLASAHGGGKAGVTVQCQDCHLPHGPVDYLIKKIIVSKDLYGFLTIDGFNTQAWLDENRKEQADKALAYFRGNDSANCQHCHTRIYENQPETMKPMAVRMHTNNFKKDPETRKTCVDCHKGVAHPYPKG
Briefly: cyclic voltammetry, catalytic reduction current. The settings on record: 1 mM fumarate, electrons from MQ-7 via CymA, pH 7.4, 21 °C.

For experiment [1], the target named is T2, CymA (Shewanella oneidensis, UniProt Q8E8S0).
T2 construct: full-length recombinant tetraheme CymA (24 kDa), isolated from MR-1, reconstituted in POPC/cardiolipin membrane, no Fcc3
T2 sequence (Q8E8S0 1-187): T1 sequence (Q8E8S0 1-187 partner)
Briefly: cyclic voltammetry, catalytic oxidation current with dithionite (menaquinone reduction). Particulars: 1 mM dithionite, 1% (w/w) MQ-7, pH 7.4, 21 °C.

Experiment [2] addresses T3, CymA-Fcc3 complex (Shewanella oneidensis, UniProt Q8E8S0).
T3 construct: isolated from MR-1; with Fumarate reductase (cytochrome), flavocytochrome c3
T3 sequence (Q8E8S0 1-187): T1 sequence (Q8E8S0 1-187 partner)
T3 sequence (P83223 26-596 partner): T1 sequence (P83223 26-596)
In words: cyclic voltammetry, catalytic fumarate reduction current on membrane-modified gold electrode. The settings on record: 1 mM fumarate, 1% (w/w) MQ-7, pH 7.4, 21 °C; competitive quinol-site inhibitor.

In experiment [3] the target is T3, CymA-Fcc3 complex. Briefly: cyclic voltammetry, membrane-modified gold electrode, MQ-7 content varied. The settings on record: fumarate 1 mM as acceptor, pH 7.4, 21 °C; MQ-7 in membrane as % (w/w); Michaelis-Menten fit, constant not given.
Experiment [4] addresses T2, CymA. Briefly: cyclic voltammetry, dithionite as reductant. Particulars: 1 mM dithionite, pH 7.4, 21 °C, no Fcc3.

Regarding `O=C(O)/C=C/C(=O)O` [fumarate], the “cyclic voltammetry, catalytic reduction current” value at Fcc3 was “addition of fumarate had a large effect on the appearance of the CV”.

In the case of `CCCCCCCc1cc(O)c2ccccc2[n+]1[O-]` [2-n-heptyl-4-hydroxyquinoline N-oxide, 2-n-Heptyl-4-hydroxyquinoline N-oxide], the “inhibition at 10 μM” value against CymA [1] is on record as “a catalytic oxidation signal appears that is inhibited by addition of HQNO”; on CymA-Fcc3 complex [2] it was “The addition of HQNO inhibited catalytic fumarate reduction (Figure 2B)”.

`CC(C)=CCC/C(C)=C/CC/C(C)=C/CC/C(C)=C/CC/C(C)=C/CC/C(C)=C/CC/C(C)=C/Cc1c(C)c(O)c2ccccc2c1O` [menaquinol-7]: the “cyclic voltammetry, membrane-modified gold electrode, MQ-7 content varied” value on CymA-Fcc3 complex [3] is reported as “the CymA-Fcc3 complex is able to oxidize MQ-7 in SSMs”.

`CC(C)=CCC/C(C)=C/CC/C(C)=C/CC/C(C)=C/CC/C(C)=C/CC/C(C)=C/CC/C(C)=C/CC1=C(C)C(=O)c2ccccc2C1=O` [Menaquinone-7]: the “cyclic voltammetry, dithionite as reductant” value at CymA [4] is “CymA is only able to reduce MQ-7 in the absence of Fcc3”.
